Laboratory results published in patent publication US20260062387A1, “SALT-INDUCIBLE KINASE INHIBITOR COMPOUND AND PHARMACEUTICAL COMPOSITION INCLUDING THE SAME” (MITSUBISHI TANABE PHARMA CORPORATION, priority 2023, published 2026).

How the values were obtained:
Format in all cases: biochemical
[1] = target: GST-tagged SIK3 (Homo sapiens (Human), UniProt Q9Y2K2); test: SIK3 inhibition test (ADP-Glo Max Assay); conditions: enzyme 100 nM, AMARA Peptide 100 μM, ATP 1 mM, 2 hours room temperature
How it was run: (§1)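 ADP formed was detected by luciferase luminescence after a 2 h room-temperature reaction with 1 mM ATP, 5 mM MgCl2 and AMARA peptide at 200 μM (SIK1, SIK2) or 100 μM (SIK3). Final GST-enzyme levels were 20 nM SIK1, 3 nM SIK2 and 100 nM SIK3. IC50 came from 16-point concentration-response data.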

[2] = target: GST-tagged SIK1 (Homo sapiens (Human), UniProt P57059); test: SIK1 inhibition test (ADP-Glo Max Assay); conditions: enzyme 20 nM, AMARA Peptide 200 μM, ATP 1 mM, 2 hours room temperature
How it was run: as §1

[3] = target: GST-tagged SIK2 (Homo sapiens (Human), UniProt Q9H0K1); test: SIK2 inhibition test (ADP-Glo Max Assay); conditions: enzyme 3 nM, AMARA Peptide 200 μM, ATP 1 mM, 2 hours room temperature
How it was run: as §1

Sequence of GST-tagged SIK1 (P57059 whole entry): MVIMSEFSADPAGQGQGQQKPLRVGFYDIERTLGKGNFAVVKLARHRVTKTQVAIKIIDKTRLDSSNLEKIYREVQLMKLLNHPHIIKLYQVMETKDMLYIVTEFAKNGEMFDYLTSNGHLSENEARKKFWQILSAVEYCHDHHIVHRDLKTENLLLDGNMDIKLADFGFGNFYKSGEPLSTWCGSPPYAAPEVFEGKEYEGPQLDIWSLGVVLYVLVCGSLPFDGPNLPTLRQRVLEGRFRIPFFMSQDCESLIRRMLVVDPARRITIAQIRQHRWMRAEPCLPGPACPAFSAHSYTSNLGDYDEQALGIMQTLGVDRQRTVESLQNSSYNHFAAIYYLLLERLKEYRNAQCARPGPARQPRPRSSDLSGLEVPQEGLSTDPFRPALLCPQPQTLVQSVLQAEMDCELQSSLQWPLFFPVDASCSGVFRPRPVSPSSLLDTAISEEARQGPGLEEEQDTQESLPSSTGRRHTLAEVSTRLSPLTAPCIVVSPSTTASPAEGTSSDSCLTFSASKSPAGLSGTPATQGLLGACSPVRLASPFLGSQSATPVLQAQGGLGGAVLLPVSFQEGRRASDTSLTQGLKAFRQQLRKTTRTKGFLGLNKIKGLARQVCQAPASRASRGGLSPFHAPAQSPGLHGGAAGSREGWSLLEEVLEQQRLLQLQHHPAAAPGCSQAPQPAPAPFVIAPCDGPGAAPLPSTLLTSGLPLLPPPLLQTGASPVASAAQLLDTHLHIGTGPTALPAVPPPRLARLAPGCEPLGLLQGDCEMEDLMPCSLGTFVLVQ
Sequence of GST-tagged SIK3 (Q9Y2K2 whole entry): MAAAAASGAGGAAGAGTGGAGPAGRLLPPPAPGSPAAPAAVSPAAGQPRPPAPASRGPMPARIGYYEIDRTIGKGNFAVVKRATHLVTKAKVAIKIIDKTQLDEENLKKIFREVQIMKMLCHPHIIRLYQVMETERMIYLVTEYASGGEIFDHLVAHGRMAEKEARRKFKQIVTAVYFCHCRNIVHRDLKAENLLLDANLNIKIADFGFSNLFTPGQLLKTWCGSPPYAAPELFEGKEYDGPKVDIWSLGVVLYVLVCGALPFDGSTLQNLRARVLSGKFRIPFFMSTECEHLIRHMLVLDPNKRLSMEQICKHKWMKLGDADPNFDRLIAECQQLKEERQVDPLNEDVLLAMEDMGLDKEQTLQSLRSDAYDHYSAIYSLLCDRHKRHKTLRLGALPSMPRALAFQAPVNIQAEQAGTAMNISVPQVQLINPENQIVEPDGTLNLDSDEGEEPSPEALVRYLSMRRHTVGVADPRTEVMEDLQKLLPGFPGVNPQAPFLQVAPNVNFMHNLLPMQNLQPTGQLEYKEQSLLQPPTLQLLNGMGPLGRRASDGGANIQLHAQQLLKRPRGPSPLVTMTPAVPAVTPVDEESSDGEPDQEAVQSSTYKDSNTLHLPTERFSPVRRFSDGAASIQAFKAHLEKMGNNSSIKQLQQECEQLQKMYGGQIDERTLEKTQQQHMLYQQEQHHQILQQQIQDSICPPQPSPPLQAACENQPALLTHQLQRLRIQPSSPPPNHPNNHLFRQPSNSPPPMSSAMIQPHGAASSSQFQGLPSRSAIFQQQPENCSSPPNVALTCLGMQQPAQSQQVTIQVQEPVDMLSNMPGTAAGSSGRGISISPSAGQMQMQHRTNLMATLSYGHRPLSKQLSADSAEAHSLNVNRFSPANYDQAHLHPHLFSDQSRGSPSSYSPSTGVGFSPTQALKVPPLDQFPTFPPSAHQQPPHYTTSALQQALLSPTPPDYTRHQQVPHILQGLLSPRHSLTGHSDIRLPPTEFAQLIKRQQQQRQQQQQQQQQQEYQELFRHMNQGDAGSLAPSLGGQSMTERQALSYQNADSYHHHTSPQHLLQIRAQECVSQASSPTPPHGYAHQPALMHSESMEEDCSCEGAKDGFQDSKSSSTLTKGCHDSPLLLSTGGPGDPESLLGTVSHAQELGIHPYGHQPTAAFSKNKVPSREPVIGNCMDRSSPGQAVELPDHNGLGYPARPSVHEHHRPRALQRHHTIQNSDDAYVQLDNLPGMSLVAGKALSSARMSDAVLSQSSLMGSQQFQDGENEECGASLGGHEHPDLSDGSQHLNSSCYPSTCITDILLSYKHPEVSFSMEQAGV
Sequence of GST-tagged SIK2 (Q9H0K1 whole entry): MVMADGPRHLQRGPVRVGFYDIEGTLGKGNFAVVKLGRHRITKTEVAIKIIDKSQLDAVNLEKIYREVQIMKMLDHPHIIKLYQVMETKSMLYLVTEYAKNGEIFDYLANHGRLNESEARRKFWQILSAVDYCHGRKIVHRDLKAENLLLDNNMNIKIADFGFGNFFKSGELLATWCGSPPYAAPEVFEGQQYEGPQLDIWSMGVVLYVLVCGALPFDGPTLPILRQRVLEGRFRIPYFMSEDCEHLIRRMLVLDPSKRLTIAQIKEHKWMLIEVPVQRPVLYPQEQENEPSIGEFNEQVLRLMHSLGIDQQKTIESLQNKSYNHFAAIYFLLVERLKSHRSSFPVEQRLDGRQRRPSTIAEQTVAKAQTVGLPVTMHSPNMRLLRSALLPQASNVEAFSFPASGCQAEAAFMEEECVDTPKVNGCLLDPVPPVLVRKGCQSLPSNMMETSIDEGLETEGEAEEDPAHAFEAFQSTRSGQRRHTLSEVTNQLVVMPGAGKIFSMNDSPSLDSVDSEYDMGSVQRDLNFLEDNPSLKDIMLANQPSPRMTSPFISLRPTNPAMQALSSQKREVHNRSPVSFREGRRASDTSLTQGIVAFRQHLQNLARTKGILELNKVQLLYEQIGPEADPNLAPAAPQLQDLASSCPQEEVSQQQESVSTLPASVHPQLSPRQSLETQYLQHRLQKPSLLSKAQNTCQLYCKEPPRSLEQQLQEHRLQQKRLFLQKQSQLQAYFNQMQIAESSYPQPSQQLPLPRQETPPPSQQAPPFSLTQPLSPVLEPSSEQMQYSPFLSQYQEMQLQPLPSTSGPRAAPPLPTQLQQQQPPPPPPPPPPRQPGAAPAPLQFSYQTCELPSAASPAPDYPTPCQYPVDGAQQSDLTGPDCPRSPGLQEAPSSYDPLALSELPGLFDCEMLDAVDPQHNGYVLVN

Row | SMILES | IC50 [1] | IC50 [2] | IC50 [3]
1 | COc1cc(-c2c3c(OCC4CC4)cc(-c4cnn(C)c4)cc3nn2C)cc(OC(F)F)c1C(=O)N1CC(O)(C(F)(F)F)C1 [Example 29, [4-[4-(cyclopropylmethoxy)-2-methyl-6-(1-methylpyrazol-4-yl)indazol-3-yl]-2-(difluoromethoxy)-6-methoxyphenyl]-[3-hydroxy-3-(trifluoromethyl)azetidin-1-yl]methanone] | 13.2 nM | 8.6 nM | 10.3 nM
2 | COc1cc(-c2c3c(OCc4ccncc4)cc(-c4cnn(C)c4)cc3nn2C)cc(OC(F)F)c1C(=O)N1CC(O)(C(F)(F)F)C1 [Example 35, [2-(difluoromethoxy)-6-methoxy-4-[2-methyl-6-(1-methylpyrazol-4-yl)-4-(pyridin-4-ylmethoxy)indazol-3-yl]phenyl]-[3-hydroxy-3-(trifluoromethyl)azetidin-1-yl]methanone] | 12.9 nM | 1.9 nM | 3 nM
3 | COc1cc(-c2c3c(C#N)cc(-c4cnn(C)c4)cc3nn2C)cc(OC(F)F)c1C(=O)N1CC(N)(C(F)(F)F)C1 [Example 36, 3-[4-[3-amino-3-(trifluoromethyl)azetidin-1-carbonyl]-3-(difluoromethoxy)-5-methoxyphenyl]-2-methyl-6-(1-methylpyrazol-4-yl)indazole-4-carbonitrile] | 10.2 nM | 12.5 nM | 15.4 nM
4 | COc1cc(-c2c3c(OC)cc(-c4cnn(C)c4)cc3nn2C)cc(OC(F)F)c1C(=O)N1CC(O)(C(F)F)C1 [Example 37, [2-(difluoromethoxy)-6-methoxy-4-[4-methoxy-2-methyl-6-(1-methylpyrazol-4-yl)indazol-3-yl]phenyl]-[3-(difluoromethyl)-3-hydroxyazetidin-1-yl]methanone] | 12.9 nM | 7.9 nM | 8.3 nM
5 | COc1cc(-c2c3c(C(F)F)cc(-c4cnn(C)c4)cc3nn2C)cc(OC(F)F)c1C(=O)N1CC(O)(C(F)F)C1 [Example 38, [2-(difluoromethoxy)-4-[4-(difluoromethyl)-2-methyl-6-(1-methylpyrazol-4-yl)indazol-3-yl]-6-methoxyphenyl]-[3-(difluoromethyl)-3-hydroxyazetidin-1-yl]methanone] | 10.1 nM | 16.8 nM | 13.8 nM
6 | CCOc1cc(-c2cnn(C)c2)cc2nn(C)c(-c3cc(OC)c(C(=O)N4CC(O)(C(F)(F)F)C4)c(OC(F)F)c3)c12 [Example 42, [2-(difluoromethoxy)-4-[4-ethoxy-2-methyl-6-(1-methylpyrazol-4-yl)indazol-3-yl]-6-methoxyphenyl]-[3-hydroxy-3-(trifluoromethyl)azetidin-1-yl]methanone] | 10.5 nM | 2 nM | 12.8 nM
7 | COc1cc(-c2c3c(OC(C)C)cc(-c4cnn(C)c4)cc3nn2C)cc(OC(F)F)c1C(=O)N1CC(O)(C(F)(F)F)C1 [Example 43, [2-(difluoromethoxy)-6-methoxy-4-[2-methyl-6-(1-methylpyrazol-4-yl)-4-propan-2-yloxyindazol-3-yl]phenyl]-[3-hydroxy-3-(trifluoromethyl)azetidin-1-yl]methanone] | 20 nM | 2.4 nM | 19.7 nM
8 | COc1cc(-c2c3c(OCCCCO)cc(-c4cnn(C)c4)cc3nn2C)cc(OC(F)F)c1C(=O)N1CC(O)(C(F)(F)F)C1 [Example 44, [2-(difluoromethoxy)-4-[4-(4-hydroxybutoxy)-2-methyl-6-(1-methylpyrazol-4-yl)indazol-3-yl]-6-methoxyphenyl]-[3-hydroxy-3-(trifluoromethyl)azetidin-1-yl]methanone] | 15.5 nM | 6.7 nM | 8.4 nM
9 | COc1cc(-c2c3c(OCC[C@H](C)O)cc(-c4cnn(C)c4)cc3nn2C)cc(OC(F)F)c1C(=O)N1CC(O)(C(F)(F)F)C1 [Example 47, [2-(difluoromethoxy)-4-[4-[(3S)-3-hydroxybutoxy]-2-methyl-6-(1-methylpyrazol-4-yl)indazol-3-yl]-6-methoxyphenyl]-[3-hydroxy-3-(trifluoromethyl)azetidin-1-yl]methanone] | 19.2 nM | 9 nM | 16.2 nM
10 | COc1cc(-c2c3c(OCc4cnccn4)cc(-c4cnn(C)c4)cc3nn2C)cc(OC(F)F)c1C(=O)N1CC(O)(C(F)(F)F)C1 [Example 48, [2-(difluoromethoxy)-6-methoxy-4-[2-methyl-6-(1-methylpyrazol-4-yl)-4-(pyrazin-2-ylmethoxy)indazol-3-yl]phenyl]-[3-hydroxy-3-(trifluoromethyl)azetidin-1-yl]methanone] | 11.2 nM | 3.5 nM | 10.6 nM
11 | COc1cc(-c2c3c(OCc4cnc(C)s4)cc(-c4cnn(C)c4)cc3nn2C)cc(OC(F)F)c1C(=O)N1CC(O)(C(F)(F)F)C1 [Example 49, [2-(difluoromethoxy)-6-methoxy-4-[2-methyl-6-(1-methylpyrazol-4-yl)-4-[(2-methyl-1,3-thiazol-5-yl)methoxy]indazol-3-yl]phenyl]-[3-hydroxy-3-(trifluoromethyl)azetidin-1-yl]methanone] | 9.7 nM | 3.9 nM | 11.2 nM
12 | COc1cc(-c2c3c(OCc4ccc(C)nc4)cc(-c4cnn(C)c4)cc3nn2C)cc(OC(F)F)c1C(=O)N1CC(O)(C(F)(F)F)C1 [Example 50, [2-(difluoromethoxy)-6-methoxy-4-[2-methyl-6-(1-methylpyrazol-4-yl)-4-[(6-methylpyridin-3-yl)methoxy]indazol-3-yl]phenyl]-[3-hydroxy-3-(trifluoromethyl)azetidin-1-yl]methanone] | 17.1 nM | 6.8 nM | 5 nM

The next compounds have a lower IC50 [1] than those just listed; values first:

Row | IC50 [1] | IC50 [2] | IC50 [3] | SMILES
13 | 3.6 nM | 5.1 nM | 6.6 nM | COc1cc(-c2c3c(OCC(F)(F)F)cc(-c4cnn(C)c4)cc3nn2C)cc(OC(F)F)c1C(=O)N1CC(O)(C(F)(F)F)C1 [Example 30, [2-(difluoromethoxy)-6-methoxy-4-[2-methyl-6-(1-methylpyrazol-4-yl)-4-(2,2,2-trifluoroethoxy)indazol-3-yl]phenyl]-[3-hydroxy-3-(trifluoromethyl)azetidin-1-yl]methanone]
14 | 7.8 nM | 3.7 nM | 3.3 nM | COc1cc(-c2c3c(C#N)cc(-c4cnn(CC(F)F)c4)cc3nn2C)cc(OC(F)F)c1C(=O)N[C@@H]1C[C@@H]1F [Example 31, 4-[4-cyano-6-[1-(2,2-difluoroethyl)pyrazol-4-yl]-2-methylindazol-3-yl]-2-(difluoromethoxy)-N-[(1R, 2S)-2-fluorocyclopropyl]-6-methoxybenzamide]
15 | 8.9 nM | 5 nM | 4.5 nM | COc1cc(-c2c3c(C#N)cc(-c4cnn(CC5CC5)c4)cc3nn2C)cc(OC(F)F)c1C(=O)N[C@@H]1C[C@@H]1F [Example 32, 4-[4-cyano-6-[1-(cyclopropylmethyl)pyrazol-4-yl]-2-methylindazol-3-yl]-2-(difluoromethoxy)-N-[(1R, 2S)-2-fluorocyclopropyl]-6-methoxybenzamide]
16 | 8.5 nM | 4.6 nM | 2.6 nM | COc1cc(-c2c3c(C#N)cc(-c4cnn(C(C)C)c4)cc3nn2C)cc(OC(F)F)c1C(=O)N[C@@H]1C[C@@H]1F [Example 33, 4-[4-cyano-2-methyl-6-(1-propan-2-ylpyrazol-4-yl)indazol-3-yl]-2-(difluoromethoxy)-N-[(1R,2S)-2-fluorocyclopropyl]-6-methoxybenzamide]
17 | 2.9 nM | 0.4 nM | 1 nM | COc1cc(-c2c3c(OCc4cccnc4)cc(-c4cnn(C)c4)cc3nn2C)cc(OC(F)F)c1C(=O)N1CC(O)(C(F)(F)F)C1 [Example 34, [2-(difluoromethoxy)-6-methoxy-4-[2-methyl-6-(1-methylpyrazol-4-yl)-4-(pyridin-3-ylmethoxy)indazol-3-yl]phenyl]-[3-hydroxy-3-(trifluoromethyl)azetidin-1-yl]methanone]
18 | 9.4 nM | 16.2 nM | 18.2 nM | COc1cc(-c2c3c(C#N)cc(-c4cnn(C)c4)cc3nn2C)cc(OC(F)F)c1C(=O)N1CC(C#N)(C(F)F)C1 [Example 39, 3-[4-[3-cyano-3-(difluoromethyl)azetidin-1-carbonyl]-3-(difluoromethoxy)-5-methoxyphenyl]-2-methyl-6-(1-methylpyrazol-4-yl)indazole-4-carbonitrile]
19 | 2.1 nM | 4.9 nM | 3.7 nM | COc1cc(-c2c3c(C#N)cc(/C=C/c4cnn(C)c4)cc3nn2C)cc(OC(F)F)c1C(=O)N[C@@H]1C[C@@H]1F [Example 40, 4-[4-cyano-2-methyl-6-[(E)-2-(1-methylpyrazol-4-yl)ethenyl]indazol-3-yl]-2-(difluoromethoxy)-N-[(1R,2S)-2-fluorocyclopropyl]-6-methoxybenzamide]
20 | 5.3 nM | 1.3 nM | 7.6 nM | COc1cc(-c2c3c(OCC(F)F)cc(-c4cnn(C)c4)cc3nn2C)cc(OC(F)F)c1C(=O)N1CC(O)(C(F)(F)F)C1 [Example 41, [4-[4-(2,2-difluoroethoxy)-2-methyl-6-(1-methylpyrazol-4-yl)indazol-3-yl]-2-(difluoromethoxy)-6-methoxyphenyl]-[3-hydroxy-3-(trifluoromethyl)azetidin-1-yl]methanone]
21 | 9.4 nM | 18.9 nM | 8.6 nM | COc1cc(-c2c3c(OC)cc(-c4cnn(C)c4)cc3nn2C)cc(OC(F)F)c1C(=O)N[C@@H]1CC1(F)F [Example 45, N-[(1R)-2,2-difluorocyclopropyl]-2-(difluoromethoxy)-6-methoxy-4-[4-methoxy-2-methyl-6-(1-methylpyrazol-4-yl)indazol-3-yl]benzamide]
